{"source": "patent US9828630B2", "about": "“Methods of enhancing genetic diagnosis” (BioLamina AB, priority 2011, dated 2017)", "key": {"human ES cells [1]": {"test_system": "human ES cells", "assay": "Cell survival assay, 24 hours (1 day) after plating from single cell suspension", "type": "cell-based", "details": "10 μM Y-27632, 40,000 cells per 1 cm^2, 24 hours"}, "human ES and iPS cells": {"test_system": "human ES and iPS cells", "assay": "Long-term culture with single cell dissociation passaging", "type": "cell-based", "details": "for proliferation rate / increase in number of cells compared with Matrigel or classical methods: FIG. 8; for passages proliferated: O3 medium", "experimental": "Human ES cells were cultured on r-laminin-521-coated laboratory dishes in chemically defined O3 medium (described in Rodin et al., Nature Biotechnol., vol. 28, pp. 611-615 (2010)) at 37° C. in 5% CO2. Cells were routinely passed once every 10-12 days by exposure to Trypsin-EDTA solution (GIBCO Invitrogen) for 5 minutes at 37° C. They were then gently pipetted to break into single-cell suspension and defined trypsin inhibitor (GIBCO Invitrogen) was added. The cell suspension was centrifuged […], the supernatant discarded, the cell pellet resuspended in prewarmed O3 medium, and cells were then passed through a 40 μm sieve. After that cells were plated on new r-laminin-521-coated dishes at a concentration 30 Kcells/cm^2 (1:25-1:30 split ratio). Cells were fed once a day with fresh medium prewarmed in an incubator for 1 hour, except for the first day after a passage, when only a few drops of fresh medium were added. Control cells of the same line were cultured on Matrigel (BD Biosciences) in O3 medium as described in Rodin et al., Nature Biotechnol., vol. 28, pp. 611-615 (2010). Control cells were passaged in pieces.\nHuman ES cells of HS181 and HS401 were cultured on LN-521-coated culture dishes in O3 medium (described in Rodin et al., Nature Biotechnol., vol. 28, pp. 611-615 (2010) with pH was adjusted to 7.35), mTeSR1 (STEMCELL Technologies) and chemically defined and xeno-free TeSR2 (STEMCELL Technologies) at 37° C., 5% CO2. Initially, cells of the lines were transferred onto a LN-521 coating from a human feeder cell layer by careful scratching using a sterile knife with subsequent trypsinization, or the cells were trypsinized into single cell suspension from a LN-511 coating. The cells were provided once a day with fresh medium pre-warmed in an incubator for one hour, except for the first day after plating, when only a few drops of fresh medium were added. Cells were routinely passed once in 10-12 days by exposure to Trypsin/EDTA (GIBCO Invitrogen Corporation, Paisley, Scotland) for 5 minutes at 37° C., 5% CO2. They were then gently pipetted to break into single-cell suspension and a Defined Trypsin Inhibitor (GIBCO Invitrogen) was added. The cell suspension was centrifuged at 25 rcf for 4 minutes, the supernatant was discarded, the cell pellet was resuspended in prewarmed O3 medium, and the cells were then passed through a 40 μm sieve. Subsequently, the cells were plated on new LN-521-coated dishes at a concentration of 30,000 cells/cm^2 in 1:25-1:30 split ratios. Control cells of the same line were cultured on Matrigel (STEMCELL Technologies) and LN-511 in O3 medium as described previously.^9\nFor defined and xeno-free cultures, TeSR2 (STEMCELL Technologies) medium and defined free from any animal derived component TrypLE™ Select (GIBCO Invitrogen Corporation, Paisley, Scotland) enzyme were used. The cells were passed every 10-14 days by exposure to TrypLE™ Select for 4-5 minutes at 37° C., 5% CO2. Then, the enzyme was carefully aspirated and prewarmed TeSR2 medium was added. After that, the cells were gently pipetted to break into single-cell suspension, centrifuged, the supernatant was discarded, and the cell pellet was resuspended in prewarmed TeSR2. The cells were then passed through a 40 μm sieve and plated on a fresh LN-521 coated dish."}, "hES cells": {"test_system": "hES cells", "assay": "In vivo imaging and migration assay", "type": "cell-based, human", "experimental": "24-well plates were coated by extracellular matrix proteins and blocked by O3 medium containing bovine serum albumin. The ES cells were plated at cell density of 30,000-40,000 cells/cm^2 onto extracellular matrix-coated plates and left to adhere for half an hour in a cell incubator. After that, the plate was transferred into high content imaging system Operetta (PerkinElmer) equipped with environmental control unit, which allowed to keep 37° C., 5% CO2. For two movies that were made, the brightfield images were taken once in 15 minutes during 24 hours after plating using Harmony software (PerkinElmer), exported, and analyzed using ImageJ software (NIH, the US). For migration assay the images were taken every seven minutes during 18 hours after plating. Images acquired between the fifth and seventh hours after plating were analyzed using MTrackJ plug-in (University Medical Center, Rotterdam, The Netherlands). 100 attached cells on each coating were traced and mean distances from the current to the previous point of the track were calculated. Error bars show standard error of the mean s.e.m. (n=100)."}, "human ES cells [2]": {"test_system": "human ES cells", "assay": "Real-time quantitative RT-PCR / marker expression of pluripotency and differentiation markers", "type": "cell-based", "experimental": "Total RNA was isolated and cDNA was synthesized as described in Rodin et al., Nature Biotechnol., vol. 28, pp. 611-615 (2010). Real-time quantitative RT-PCR Taqman assays were performed using the Applied Biosystems 7300 Real-Time PCR System. All reactions were done in quadruplicate with predeveloped gene expression assay mix (Applied Biosystems) containing primers and a probe for the mRNA of interest. Additional reactions for each experiment included predeveloped gene expression assay mix for GAPDH, used to normalize the RNA input. All data were analyzed with 7300 System SDS Software version 1.4.\nTotal RNA was isolated using Absolutely RNA Microprep Kit (Stratagene, La Jolla Calif., www.stratagene.com) according to the manufacturer's instructions. cDNA was synthesized using 0.2 μg of total RNA in 20 μl reaction mixture, containing oligo(dT)12-18 primers and Superscript II reverse transcriptase (GIBCO Invitrogen Corporation), according to the manufacturer's instructions. Real-time quantitative RT-PCR Taqman assays were performed using the Applied Biosystems 7300 Real-Time PCR System (Applied Biosystems, Foster City, Calif.). All reactions were done in quadruplicates with the use of a pre-developed gene expression assay mix (Applied Biosystems) containing primers and a probe for the mRNA of interest. […] All data was analyzed with 7300 System SDS Software v 1.4."}, "SCID mouse": {"test_system": "SCID mouse", "assay": "Teratoma formation in SCID mice", "type": "in vivo", "details": "HS181 13, H1 12 passages in O3; H1 7 passages in TeSR2", "experimental": "Teratoma formation experiments were performed by implantation of approximately 10^6 cells beneath the testicular capsule of a young (7-week-old) severe combined immunodeficiency (SCID) mouse. Three animals per each cell line were used. Teratoma growth was observed by weekly palpation, and the mice were sacrificed eight weeks after the implantation. The teratomas were fixed, and sections were stained with hematoxylin and eosin (HE) or with hematoxylin, eosin and PAS (HE-PAS). […] All animal experiments were performed at the infection-free animal facility of the Karolinska University Hospital in accordance with ethical committee approval."}}}
{"substance": "LN-521: protein formed by joining laminin α5, β2 and γ1 chains; human recombinant, produced in HEK293 cells", "values": [{"measurement": "survival of Y-27632 treated cells compared with Matrigel", "setting": "human ES cells [1]", "value": "survived better"}, {"measurement": "passages cultured", "setting": "human ES and iPS cells; ChiPSW iPS cells, mTeSR1", "value": 3, "unit": "passages"}, {"measurement": "robust proliferation with stable and high rate", "setting": "human ES and iPS cells; Example 1, O3 medium, 1:25 to 1:30, 3 months", "value": "at least 9 passages"}, {"measurement": "proliferation rate / increase in number of cells compared with Matrigel or classical methods", "setting": "human ES and iPS cells", "value": "much faster rate"}, {"measurement": "proliferation rate / increase in number of cells compared with Matrigel or classical methods", "setting": "human ES and iPS cells; listed as laminin-521", "value": "higher rate"}, {"measurement": "passages proliferated", "setting": "human ES and iPS cells; H1 cells, 6 months", "value": "≥ 15", "unit": "passages"}, {"measurement": "passages proliferated", "setting": "human ES and iPS cells; HS181 cells, 9 months", "value": "at least 24 passages"}, {"measurement": "passages proliferated", "setting": "human ES and iPS cells; HS401 cells, 2 months", "value": "≥ 5", "unit": "passages"}, {"measurement": "passages to undergo the same number of cell doublings as 20 passages (100 days / 3 months) by conventional methods on Matrigel", "setting": "human ES and iPS cells; single cell suspension passaging, 1 month", "value": 3, "unit": "passages"}, {"measurement": "cell migration compared with Matrigel (imaging)", "setting": "hES cells; 24 hours imaging", "value": "much faster"}, {"measurement": "motility of hES cells compared with other coatings", "setting": "hES cells; between fifth and seventh hours after plating, FIG. 14", "value": "higher"}, {"measurement": "number of mRNA transcripts of pluripotency markers Oct4 and Nanog compared with Matrigel", "setting": "human ES cells [2]; FIG. 11", "value": "higher numbers of transcripts"}, {"measurement": "expression levels of pluripotency markers Oct4, Nanog and SSEA4", "setting": "human ES cells [2]; similar to cells on Matrigel passed as small clumps", "value": "stable expression levels"}, {"measurement": "tissues in teratomas formed in SCID mice", "setting": "SCID mouse", "value": "all three germ lineages"}]}
